According to ChEMBL document CHEMBL6115007, “Synthesis and in vitro and in vivo evaluation of novel bivalent quinolines as antitumor agents via targeting autophagy in cervical cancer” (Eur J Med Chem, 2025):
pIC50: −log10 of the molar value. Activity calls are given as the source filed them. The calls are words filed in the database; no cut-off is given here.

Key:
BGC-823 = experiment: Antiproliferative activity against human BGC-823 cells assessed as reduction in cell optical density incubated for 48 hrs by MTT assay; format: functional, cell-based; settings: BGC-823, 48 h
Ca-Ski [1] = experiment: Antiproliferative activity against human Ca Ski cells assessed as inhibition of cell viability incubated for 24 hrs by CCK8 assay; format: functional, cell-based
HeLa [2] = experiment: Antiproliferative activity against human HeLa cells assessed as inhibition of cell growth at 0.4 to 1.6 uM by CCK8 assay; format: functional, cell-based; settings: dose 0.4-1.6 µM, time 6.0 day
HeLa [3] = experiment: Inhibition of colony formation in human HeLa cells assessed as reduction in colony forming unit count at 0.15 to 0.6 uM incubated for 24 hrs by crystal violet staining based analysis; format: functional, cell-based; settings: dose 0.15-0.6 µM
HeLa [4] = experiment: Inhibition of cell migration in human HeLa cells at 0.6 to 1.2 uM measured after 24 hrs by transwell migration assay; format: functional, cell-based; settings: dose 0.6-1.2 µM
HeLa [5] = experiment: Induction of morphological changes in human HeLa cells assessed as decrease in cell adherence to culture dish at 0.6 to 2.4 uM by microphotographic analysis; format: functional, cell-based; settings: dose 0.6-2.4 µM
HeLa [6] = experiment: Induction of apoptosis in human HeLa cells assessed as late apoptotic cells at 0.6 uM preincubated with Z-VAD-FMK for 1 hrs followed by compound addition and measured after 24 hrs by Annexin V-FITC/PI staining based flow cytometric analysis (reference value: 1.02 %); format: functional
HeLa [7] = experiment: Induction of apoptosis in human HeLa cells assessed as viable cells at 1.2 uM preincubated with Z-VAD-FMK for 1 hrs followed by compound addition and measured after 24 hrs by Annexin V-FITC/PI staining based flow cytometric analysis (reference value: 95.8 %); format: functional; settings: read-out: Activity
HeLa [8] = experiment: Induction of apoptosis in human HeLa cells assessed as early apoptotic cells at 1.2 uM preincubated with Z-VAD-FMK for 1 hrs followed by compound addition and measured after 24 hrs by Annexin V-FITC/PI staining based flow cytometric analysis (reference value: 0.96 %); format: functional
Ca-Ski [9] = experiment: Induction of apoptosis in human Ca Ski cells assessed as necrotic cells at 0.5 uM incubated for 24 hrs by Annexin V-FITC/PI staining based flow cytometric analysis (reference value: 3.15 %); format: functional
Ca-Ski [10] = experiment: Induction of apoptosis in human Ca Ski cells assessed as late apoptotic cells at 1 uM incubated for 24 hrs by Annexin V-FITC/PI staining based flow cytometric analysis (reference value: 5.33 %); format: functional
Ca-Ski [11] = experiment: Induction of apoptosis in human Ca Ski cells assessed as early apoptotic cells at 0.5 uM preincubated with Z-VAD-FMK for 1 hrs followed by compound addition and measured after 24 hrs by Annexin V-FITC/PI staining based flow cytometric analysis (reference value: 2.91 %); format: functional
Ca-Ski [12] = experiment: Induction of apoptosis in human Ca Ski cells assessed as late apoptotic cells at 0.5 uM preincubated with Z-VAD-FMK for 1 hrs followed by compound addition and measured after 24 hrs by Annexin V-FITC/PI staining based flow cytometric analysis (reference value: 5.30 %); format: functional
Ca-Ski [13] = experiment: Induction of apoptosis in human Ca Ski cells assessed as necrotic cells at 0.5 uM preincubated with Z-VAD-FMK for 1 hrs followed by compound addition and measured after 24 hrs by Annexin V-FITC/PI staining based flow cytometric analysis (reference value: 1.54 %); format: functional
Ca-Ski [14] = experiment: Induction of apoptosis in human Ca Ski cells assessed as necrotic cells at 1 uM preincubated with Z-VAD-FMK for 1 hrs followed by compound addition and measured after 24 hrs by Annexin V-FITC/PI staining based flow cytometric analysis (reference value: 1.54 %); format: functional
Ca-Ski [15] = experiment: Effect on caspase 3 expression level in human Ca Ski cells at 0.25 to 1 uM incubated for 24 hrs by Western blot analysis; format: functional, cell-based; settings: dose 0.25-1 µM
Ca-Ski [16] = experiment: Effect on cleaved PARP expression level in Bax deficient human Ca Ski cells at 0.5 to 1 uM incubated for 24 hrs by Western blot analysis; format: functional, cell-based; settings: dose 0.5-1 µM
HeLa [17] = experiment: Induction of ferroptosis in human HeLa cells assessed as increase in lipid ROS level by measuring rightward shift in fluorescence intensity at 0.6 uM measured after 24 hrs by C11-BODIPY-581/591 staining based flow cytometric analysis; format: functional, cell-based
HeLa [18] = experiment: Effect on TRFC protein expression level in human HeLa cells at 0.6 uM incubated for 24 hrs by Western blot analysis; format: functional, cell-based
HeLa [19] = experiment: Effect on ACSL4 protein expression level in human HeLa cells at 0.6 uM incubated for 24 hrs by Western blot analysis; format: functional, cell-based
HeLa [20] = experiment: Effect on GPX4 protein expression level in human HeLa cells at 0.6 uM incubated for 24 hrs by Western blot analysis; format: functional, cell-based
Ca-Ski [21] = experiment: Effect on ACSL4 protein expression level in human Ca Ski cells at 0.5 uM incubated for 24 hrs by Western blot analysis; format: functional, cell-based
Ca-Ski [22] = experiment: Effect on GPX4 protein expression level in human Ca Ski cells at 0.5 uM incubated for 24 hrs by Western blot analysis; format: functional, cell-based
Ca-Ski [23] = experiment: Induction of autophagy in human Ca Ski cells transfected with mRFP-GFP-LC3 plasmid assessed as decrease in GFP fluorescence at 0.3 to 0.6 uM incubated for 24 hrs by DAPI staining based fluorescence confocal microscopic analysis; format: functional, cell-based; settings: dose 0.3-0.6 µM
HeLa [24] = experiment: Induction of autophagolysosome formation in human HeLa cells transfected with mRFP-GFP-LC3 plasmid assessed as increase in ratio of mRFP to GFP puncta at 0.4 to 0.8 uM incubated for 24 hrs; format: functional, cell-based; settings: dose 0.4-0.8 µM
HeLa [25] = experiment: Effect on apoptosis pathway related gene expression in human HeLa cells at 1.2 uM incubated for 24 hrs by GSVA enrichment analysis; format: functional, cell-based
Ca-Ski [26] = experiment: Antiproliferative activity against ATG7 deficient human Ca Ski cells assessed as inhibition of cell viability incubated for 24 hrs by CCK8 assay; format: functional, cell-based
HeLa [27] = experiment: Induction of autophagy in ATG7 deficient human HeLa cells assessed as increase in LC3-II expression at 0.6 to 1.2 uM incubated for 24 hrs by Western blot analysis; format: functional, cell-based; settings: dose 0.6-1.2 µM
[28] = Toxicity in female BALB/c mouse xenografted with human HeLa cells assessed as effect on liver at 4 to 8 mg/kg administered every four days and measured after 26 days by H and E staining based analysis; format: organism-based; settings: in vivo, 624 h, dose 4-8 mg/kg, time 26 day
[29] = Toxicity in female BALB/c mouse xenografted with human HeLa cells assessed as effect on kidney at 4 to 8 mg/kg administered every four days and measured after 26 days by H and E staining based analysis; format: organism-based; settings: in vivo, 624 h, dose 4-8 mg/kg, time 26 day
[30] = Toxicity in female BALB/c mouse xenografted with human HeLa cells assessed as effect on BUN level at 4 to 8 mg/kg administered every four days and measured after 26 days; format: organism-based; settings: in vivo, 624 h, dose 4-8 mg/kg, time 26 day
[31] = Toxicity in female BALB/c mouse xenografted with human HeLa cells assessed as effect on RBC level at 4 to 8 mg/kg administered every four days and measured after 26 days; format: organism-based; settings: in vivo, 624 h, dose 4-8 mg/kg, time 26 day

COc1cccc(Nc2ccnc3cc(OCCCCCOc4ccc5c(Nc6cccc(OC)c6)ccnc5c4)ccc23)c1
pIC50 (BGC-823): 5.39
Activity (Ca-Ski [1]): Dose-dependent-effect
pIC50 (Ca-Ski [1]): 6.11
Activity (HeLa [2]): Time-dependent-effect
inhibition (HeLa [3]): Active
inhibition (HeLa [4]): Active
Activity (HeLa [5]): Active
Activity (HeLa [6]): 2.8%
viability at 1.2 µM (HeLa [7]): 93.6%
Activity (HeLa [8]): 1.22%
Activity (Ca-Ski [9]): 0.64%
Activity (Ca-Ski [10]): 7.8%
Activity (Ca-Ski [11]): 7.65%
Activity (Ca-Ski [12]): 17.3%
Activity (Ca-Ski [13]): 1.4%
Activity (Ca-Ski [14]): 1.7%
Activity (Ca-Ski [15]): inactive
Activity (Ca-Ski [16]): inactive
Activity (HeLa [17]): inactive
Activity (HeLa [18]): inactive
Activity (HeLa [19]): Moderate_effect
Activity (HeLa [20]): Moderate_effect
Activity (Ca-Ski [21]): Moderate_effect
Activity (Ca-Ski [22]): Moderate_effect
Activity (Ca-Ski [23]): Active
Activity (HeLa [24]): Active
Activity (HeLa [25]): Minimal_effect
pIC50 (Ca-Ski [26]): 5.54
Activity (HeLa [27]): inactive
Activity [28]: Non-toxic
Activity [29]: Non-toxic
Activity [30]: Non-toxic
Activity [31]: Non-toxic
